Assay results published in ChEMBL document CHEMBL2384979, “Synthesis of the (1→6)-linked thiodisaccharide of galactofuranose: inhibitory activity against a β-galactofuranosidase” (Bioorg Med Chem, 2013).

Key:
[1] = Inhibition of Penicillium fellutanum exo-beta-galactofuranosidase assessed as 4-Nitrophenyl beta-D-galactofuranoside conversion to 4-nitrophenol after 1.5 hrs by spectrophotometric analysis
[2] = Competitive inhibition of Penicillium fellutanum exo-beta-galactofuranosidase assessed as 4-Nitrophenyl beta-D-galactofuranoside conversion to 4-nitrophenol after 1.5 hrs by Lineweaver-Burk plot analysis

IC50 [1]	Ki [2]	SMILES
80 µM	–	Nc1ccc(S[C@@H]2O[C@@H]([C@H](O)CO)[C@H](O)[C@H]2O)cc1
600 µM	–	O=[N+]([O-])c1ccc(S[C@@H]2O[C@@H]([C@H](O)CO)[C@H](O)[C@H]2O)cc1
–	3620 µM	CO[C@@H]1O[C@@H]([C@H](O)CS[C@@H]2O[C@@H]([C@H](O)CO)[C@H](O)[C@H]2O)[C@H](O)[C@H]1O
–	100 µM	O=C1O[C@@H]([C@H](O)CO)[C@H](O)[C@H]1O
